According to US9833497B2, “Human originated EGF domain proteins and use of the same” (CHENGDU SOURCEBIO LIMITED-LIABILITY COMPANY, priority 2013, dated 2017):

Experiments:
Assay type in all cases: cell-based
E. coli DH5α = assay: Antibacterial activity: MIC and growth curve against E. coli DH5α in 96-well plate; settings: minimal inhibitory concentration against E. coli DH5α; 96-well plate, 5×10^5 CFU/mL, 37° C., judged after 8 h
Method: 1. E. coli DH5α was exemplified. E. coli DH5α was streaked and cultured on LB solid medium. Then, a typical clone was picked and inoculated into common LB liquid medium, cultured at 37° C. with shaking at 185 rpm until the logarithmic growth phase was reached (OD600 of about 0.5). The bacterial culture was centrifuged at 4000×g for 3 min, the supernatant was discarded, and the thalli were resuspended with fresh LB medium.
2. The above-mentioned bacterial suspension was diluted and inoculated into a 96-well plate with the total volume of 100 μL per well and a bacterial count of 5×10^5 CFU/mL.
3. The recombinant protein hF VII-EGF1 was added to the above-mentioned wells with the final protein concentration in the well of the highest protein concentration being 50 μg/mL. Basing on this final concentration, a two-fold serial dilution was performed till a protein concentration gradient consisting of 50, 25, and 12.5 μg/mL was set up. Three parallel wells were set up for each concentration in the gradient.
4. The above-mentioned 96-well plate was placed and cultured at 37° C. in shaking incubator shaking at 175 rpm. Samples were taken every 30 min, the absorbance values were determined at 600 nm wavelength under a ultra violet spectrophotometer, and an inhibition curve was plotted. […] The minimal inhibitory concentration MIC is defined as the lowest concentration of the recombinant protein at which there is no growth of the bacteria.
According to the experimental procedures in Example 14, the minimal inhibitory concentrations (MIC, μg/mL) of the other human-originated EGF domain proteins (PRT2 to PRT1498 in Table 1) for E. coli DH5α were determined.

E. coli BL21 = assay: MIC against Gram-negative bacteria: E. coli BL21; settings: 5×10^5 CFU/mL
Method: (§1) 1. Gram-negative bacteria, such as E. coli BL21, Pseudomonas aeruginosa, Klebsiella pneumonia, Enterobacter cloacae, Aeromonas hydrophila, Citrobacter diversus, Moraxella catarrhalis, Proteus mirabilis, Proteus vulgaris, Serratia marcescens, etc were streaked on solid LB medium and cultured respectively. Then, typical clones were picked, inoculated into common liquid LB medium respectively, and cultured at 37° C. with shaking at 185 rpm until the McFarland specific turbidity was 0.5. The bacterial culture of each of Gram-negative bacteria was centrifuged at 4000×g for 3 min, the supernatant was discarded, and the thalli were resuspended with fresh LB medium.
(§2) 2. The above-mentioned bacterial suspensions were diluted and inoculated into 96-well plates with the final concentration of the bacterial suspension being 5×10^5 CFU/mL per well.
(§3) 3. Each of the purified human-originated EGF domain proteins (PRT1 to PRT1498 in Table 1) was added to each of the above wells and subjected to two-fold serial dilution in concentration. Three parallel wells were set up for each concentration in the gradient.
(§4) 4. The above-mentioned 96-well plates were placed and cultured at 37° C. in shaking incubator shaking at 175 rpm. […] The minimal inhibitory concentration MIC is defined as the lowest concentration of the recombinant protein at which there is no growth of the bacteria.

Pseudomonas aeruginosa = assay: MIC against Gram-negative bacteria: Pseudomonas aeruginosa; settings: 5×10^5 CFU/mL
Method: as §1, §2, §3, §4

Klebsiella pneumonia = assay: MIC against Gram-negative bacteria: Klebsiella pneumonia; settings: 5×10^5 CFU/mL
Method: as §1, §2, §3, §4

Enterobacter cloacae = assay: MIC against Gram-negative bacteria: Enterobacter cloacae; settings: 5×10^5 CFU/mL
Method: as §1, §2, §3, §4

Aeromonas hydrophila = assay: MIC against Gram-negative bacteria: Aeromonas hydrophila; settings: 5×10^5 CFU/mL
Method: as §1, §2, §3, §4

Citrobacter diversus = assay: MIC against Gram-negative bacteria: Citrobacter diversus; settings: 5×10^5 CFU/mL
Method: as §1, §2, §3, §4

Moraxella catarrhalis = assay: MIC against Gram-negative bacteria: Moraxella catarrhalis; settings: 5×10^5 CFU/mL
Method: as §1, §2, §3, §4

Proteus mirabilis = assay: MIC against Gram-negative bacteria: Proteus mirabilis; settings: 5×10^5 CFU/mL
Method: as §1, §2, §3, §4

Proteus vulgaris = assay: MIC against Gram-negative bacteria: Proteus vulgaris; settings: 5×10^5 CFU/mL
Method: as §1, §2, §3, §4

Serratia marcescens = assay: MIC against Gram-negative bacteria: Serratia marcescens; settings: 5×10^5 CFU/mL
Method: as §1, §2, §3, §4

[1] = E. coli BL21, 10 h cultivation at 37° C.
[2] = P. aeruginosa, 10 h cultivation at 37° C.
[3] = K. pneumonia, 10 h cultivation at 37° C.
[4] = E. cloacae, 10 h cultivation at 37° C.
[5] = A. hydrophila, 10 h cultivation at 37° C.
[6] = C. diversus, 10 h cultivation at 37° C.
[7] = M. catarrhalis, 10 h cultivation at 37° C.
[8] = P. mirabilis, 10 h cultivation at 37° C.
[9] = P. vulgaris, 10 h cultivation at 37° C.
[10] = S. marcescens, 10 h cultivation at 37° C.
[11] = E. coli BL21, 96-well plate, 37° C., 10 h
[12] = Pseudomonas aeruginosa, 96-well plate, 37° C., 10 h
[13] = Klebsiella pneumonia, 96-well plate, 37° C., 10 h
[14] = Enterobacter cloacae, 96-well plate, 37° C., 10 h
[15] = Aeromonas hydrophila, 96-well plate, 37° C., 10 h
[16] = Citrobacter diversus, 96-well plate, 37° C., 10 h
[17] = Moraxella catarrhalis, 96-well plate, 37° C., 10 h
[18] = Proteus mirabilis, 96-well plate, 37° C., 10 h
[19] = Proteus vulgaris, 96-well plate, 37° C., 10 h
[20] = Serratia marcescens, 96-well plate, 37° C., 10 h

PRT539 (CDCSGNSDPNLIFEDCDEVTGQCRNCLRNTTGFKCERCAPGYYGDARIAKNCAV; listed as Homo sapiens)
MIC (E. coli DH5α): 12.5 µg/mL
MIC against E. coli BL21 (E. coli BL21; 96-well plate, 37° C., 10 h): 50 µg/mL
MIC against P. aeruginosa (Pseudomonas aeruginosa; 96-well plate, 37° C., 10 h): 12.5 µg/mL
MIC against K. pneumonia (Klebsiella pneumonia; 96-well plate, 37° C., 10 h): 25 µg/mL
MIC against E. cloacae (Enterobacter cloacae; 96-well plate, 37° C., 10 h): 50 µg/mL
MIC against A. hydrophila (Aeromonas hydrophila; 96-well plate, 37° C., 10 h): 25 µg/mL
MIC against C. diversus (Citrobacter diversus; 96-well plate, 37° C., 10 h): 12.5 µg/mL
MIC against M. catarrhalis (Moraxella catarrhalis; 96-well plate, 37° C., 10 h): 25 µg/mL
MIC against P. mirabilis (Proteus mirabilis; 96-well plate, 37° C., 10 h): 50 µg/mL
MIC against P. vulgaris (Proteus vulgaris; 96-well plate, 37° C., 10 h): 12.5 µg/mL
MIC against S. marcescens (Serratia marcescens; 96-well plate, 37° C., 10 h): 50 µg/mL

PRT458 (ECSRLCRNGYCTPTGKCCCSPGWEGDFC; listed as Homo sapiens)
MIC (E. coli DH5α): 50 µg/mL
MIC against E. coli BL21 (E. coli BL21; 96-well plate, 37° C., 10 h): 12.5 µg/mL
MIC against P. aeruginosa (Pseudomonas aeruginosa; 96-well plate, 37° C., 10 h): 12.5 µg/mL
MIC against K. pneumonia (Klebsiella pneumonia; 96-well plate, 37° C., 10 h): 12.5 µg/mL
MIC against E. cloacae (Enterobacter cloacae; 96-well plate, 37° C., 10 h): 12.5 µg/mL
MIC against A. hydrophila (Aeromonas hydrophila; 96-well plate, 37° C., 10 h): 25 µg/mL
MIC against C. diversus (Citrobacter diversus; 96-well plate, 37° C., 10 h): 12.5 µg/mL
MIC against M. catarrhalis (Moraxella catarrhalis; 96-well plate, 37° C., 10 h): 25 µg/mL
MIC against P. mirabilis (Proteus mirabilis; 96-well plate, 37° C., 10 h): 12.5 µg/mL
MIC against P. vulgaris (Proteus vulgaris; 96-well plate, 37° C., 10 h): 25 µg/mL
MIC against S. marcescens (Serratia marcescens; 96-well plate, 37° C., 10 h): 12.5 µg/mL

PRT1462 (CQCNLHGSVNKFCNPHSGQCECKKEAKGLQCDTCRENFYGLDVTNCKA; listed as Homo sapiens)
MIC (E. coli DH5α): 12.5 µg/mL
MIC against E. coli BL21 (E. coli BL21; [1]): 25 µg/mL
MIC against P. aeruginosa (Pseudomonas aeruginosa; Pseudomonas aeruginosa, 10 h cultivation at 37° C.): 100 µg/mL
MIC against K. pneumonia (Klebsiella pneumonia; Klebsiella pneumonia, 10 h cultivation at 37° C.): 12.5 µg/mL
MIC against E. cloacae (Enterobacter cloacae; Enterobacter cloacae, 10 h cultivation at 37° C.): 12.5 µg/mL
MIC against A. hydrophila (Aeromonas hydrophila; Aeromonas hydrophila, 10 h cultivation at 37° C.): 12.5 µg/mL
MIC against C. diversus (Citrobacter diversus; Citrobacter diversus, 10 h cultivation at 37° C.): 25 µg/mL
MIC against M. catarrhalis (Moraxella catarrhalis; Moraxella catarrhalis, 10 h cultivation at 37° C.): 12.5 µg/mL
MIC against P. mirabilis (Proteus mirabilis; Proteus mirabilis, 10 h cultivation at 37° C.): 25 µg/mL
MIC against P. vulgaris (Proteus vulgaris; Proteus vulgaris, 10 h cultivation at 37° C.): 12.5 µg/mL
MIC against S. marcescens (Serratia marcescens; Serratia marcescens, 10 h cultivation at 37° C.): 25 µg/mL

PRT805 (FGQNCSQDCPCHHGGQCDHVTGQCHCTAGYMGDRCQ; listed as Homo sapiens)
MIC (E. coli DH5α): 12.5 µg/mL
MIC (μg/mL) E. coli BL21 (E. coli BL21; [1]): 50 µg/mL
MIC (μg/mL) P. aeruginosa (Pseudomonas aeruginosa; [2]): 12.5 µg/mL
MIC (μg/mL) K. pneumonia (Klebsiella pneumonia; [3]): 12.5 µg/mL
MIC (μg/mL) E. cloacae (Enterobacter cloacae; [4]): 12.5 µg/mL
MIC (μg/mL) A. hydrophila (Aeromonas hydrophila; [5]): 12.5 µg/mL
MIC (μg/mL) C. diversus (Citrobacter diversus; [6]): 12.5 µg/mL
MIC (μg/mL) M. catarrhalis (Moraxella catarrhalis; [7]): 50 µg/mL
MIC (μg/mL) P. mirabilis (Proteus mirabilis; [8]): 12.5 µg/mL
MIC (μg/mL) P. vulgaris (Proteus vulgaris; [9]): 50 µg/mL
MIC (μg/mL) S. marcescens (Serratia marcescens; [10]): 12.5 µg/mL

PRT442 (DINECEQVPKPCAHQCSNTPGSFKCICPPGQHLLGDGKSCA; listed as Homo sapiens)
MIC (E. coli DH5α): 12.5 µg/mL
MIC (E. coli BL21; [1]): 50 µg/mL
MIC (Pseudomonas aeruginosa; [2]): 25 µg/mL
MIC (Klebsiella pneumonia; [3]): 12.5 µg/mL
MIC (Enterobacter cloacae; [4]): 25 µg/mL
MIC (Aeromonas hydrophila; [5]): 50 µg/mL
MIC (Citrobacter diversus; [6]): 25 µg/mL
MIC (Moraxella catarrhalis; [7]): 12.5 µg/mL
MIC (Proteus mirabilis; [8]): 12.5 µg/mL
MIC (Proteus vulgaris; [9]): 12.5 µg/mL
MIC (Serratia marcescens; [10]): 25 µg/mL

PRT1326 (AINACEISNGGCSAKADCKRTTPGRRVCTCKAGYTGDGIVCL; listed as Homo sapiens)
MIC (E. coli DH5α): 50 µg/mL
MIC against E. coli BL21 (E. coli BL21; [11]): 12.5 µg/mL
MIC against P. aeruginosa (Pseudomonas aeruginosa; [12]): 50 µg/mL
MIC against K. pneumonia (Klebsiella pneumonia; [13]): 12.5 µg/mL
MIC against E. cloacae (Enterobacter cloacae; [14]): 50 µg/mL
MIC against A. hydrophila (Aeromonas hydrophila; [15]): 12.5 µg/mL
MIC against C. diversus (Citrobacter diversus; [16]): 50 µg/mL
MIC against M. catarrhalis (Moraxella catarrhalis; [17]): 25 µg/mL
MIC against P. mirabilis (Proteus mirabilis; [18]): 12.5 µg/mL
MIC against P. vulgaris (Proteus vulgaris; [19]): 25 µg/mL
MIC against S. marcescens (Serratia marcescens; [20]): 50 µg/mL

PRT22 (WCEDNGGCEQICTSRVDGPLCSCVTGTLQEDGKSCR; listed as Homo sapiens)
MIC (E. coli DH5α): 50 µg/mL
MIC (μg/mL) E. coli BL21 (E. coli BL21; [11]): 50 µg/mL
MIC (μg/mL) P. aeruginosa (Pseudomonas aeruginosa; [12]): 25 µg/mL
MIC (μg/mL) K. pneumonia (Klebsiella pneumonia; [13]): 12.5 µg/mL
MIC (μg/mL) E. cloacae (Enterobacter cloacae; [14]): 12.5 µg/mL
MIC (μg/mL) A. hydrophila (Aeromonas hydrophila; [15]): 25 µg/mL
MIC (μg/mL) C. diversus (Citrobacter diversus; [16]): 12.5 µg/mL
MIC (μg/mL) M. catarrhalis (Moraxella catarrhalis; [17]): 25 µg/mL
MIC (μg/mL) P. mirabilis (Proteus mirabilis; [18]): 12.5 µg/mL
MIC (μg/mL) P. vulgaris (Proteus vulgaris; [19]): 12.5 µg/mL
MIC (μg/mL) S. marcescens (Serratia marcescens; [20]): 25 µg/mL

PRT793 (YGEACQQICSCQNGADCDSVTGKCTCAPGFKGIDCS; listed as Homo sapiens)
MIC (E. coli DH5α): 25 µg/mL
MIC (μg/mL) E. coli BL21 (E. coli BL21; [1]): 12.5 µg/mL
MIC (μg/mL) P. aeruginosa (Pseudomonas aeruginosa; [2]): 50 µg/mL
MIC (μg/mL) K. pneumonia (Klebsiella pneumonia; [3]): 12.5 µg/mL
MIC (μg/mL) E. cloacae (Enterobacter cloacae; [4]): 25 µg/mL
MIC (μg/mL) A. hydrophila (Aeromonas hydrophila; [5]): 50 µg/mL
MIC (μg/mL) C. diversus (Citrobacter diversus; [6]): 25 µg/mL
MIC (μg/mL) M. catarrhalis (Moraxella catarrhalis; [7]): 12.5 µg/mL
MIC (μg/mL) P. mirabilis (Proteus mirabilis; [8]): 25 µg/mL
MIC (μg/mL) P. vulgaris (Proteus vulgaris; [9]): 50 µg/mL
MIC (μg/mL) S. marcescens (Serratia marcescens; [10]): 12.5 µg/mL
